In patent US9029391B2 (priority 2011, dated 2015) one finds IC50 data, which are given here for ten compounds.

The structures appear in SMILES notation.

Broadly, the IC50 is the concentration that gives 50% inhibition.

The test system of the test is HIV. Briefly: MT4 Assay (anti-HIV activity). The class given is cell-based. Conditions: Human immunodeficiency virus 1, 96 h, read-out: HIV MT4 Assay IC50, HTLV-1 transformed cell line MT-4, cell titer glo, 10 point dose response curve. How it is done: Antiviral HIV activity and cytotoxicity values for compounds of the invention from Table 1 were measured in parallel in the HTLV-1 transformed cell line MT-4 based on the method previously described (Hazen et al., 2007, In vitro antiviral activity of the novel, tyrosyl-based human immunodeficiency virus (HIV) type 1 protease inhibitor brecanavir (GW640385) in combination with other antiretrovirals and against a panel of protease inhibitor-resistant HIV (Hazen et al., “In vitro antiviral activity of the novel, tyrosyl-based human immunodeficiency virus (HIV) type 1 protease inhibitor brecanavir (GW640385) in combination with other antiretrovirals and against a panel of protease inhibitor-resistant HIV”, Antimicrob. Agents Chemother. 2007, 51: 3147-3154; and Pauwels et al., “Sensitive and rapid assay on MT-4 cells for the detection of antiviral compounds against the AIDS virus”, J. of Virological Methods 1987, 16: 171-185).
Luciferase activity was measured 96 hours later by adding a cell titer glo (Promega, Madison, Wis.). Percent inhibition of cell protection data was plotted relative to no compound control. Under the same condition, cytotoxicity of the compounds was determined using cell titer glo (Promega, Madison, Wis.). IC50s were determined from a 10 point dose response curve using 3-4-fold serial dilution for each compound, which spans a concentration range >1000 fold.
Background: In ATP-based viability assays light output follows the ATP content of the culture.
In the case of `Cn1c(C(OC(C)(C)C)C(=O)O)c(-c2cccc3ccccc23)c2ccccc2c1=O` (stereo not shown) [Example 29, 2-(tert-butoxy)-2-[2-methyl-4-(naphthalen-1-yl)-1-oxo-1,2-dihydroisoquinolin-3-yl]acetic acid], the IC50 came out at 8300 nM.

Regarding `Cc1c(-c2c([C@H](OC(C)(C)C)C(=O)O)n(C)c(=O)c3cc(-c4ccc(N(C)C)cc4)ccc23)cc(F)c2c1CCCO2` (atropisomer, axis not shown; (M)) [Example 199, (2S)(M)-[7-[4-(dimethylamino)phenyl]-4-(8-fluoro-5-methyl-3,4-dihydro-2H-chromen-6-yl)-2-methyl-1-oxo-1,2-dihydro-3-isoquinolinyl][(1,1-dimethylethyl)oxy]ethanoic acid], the IC50 is 90 nM.

For the compound `Cn1c(C(OC(C)(C)C)C(=O)O)c(-c2ccc3c(c2)CCC3)c2ccccc2c1=O` (stereo not shown) [Example 152, 2-(tert-butoxy)-2-(4-(2,3-dihydro-1H-inden-5-yl)-2-methyl-1-oxo-1,2-dihydroisoquinolin-3-yl)acetic acid], the IC50 worked out at 430 nM.

Regarding `Cc1c(-c2c([C@H](OC(C)(C)C)C(=O)O)n(C)c(=O)c3cc(Nc4ccc(Cl)c(F)c4)ccc23)cc(F)c2c1CCCO2` (atropisomer, axis not shown; (M)) [Example 165, (2S)(M)-[7-[(4-chloro-3-fluorophenyl)amino]-4-(8-fluoro-5-methyl-3,4-dihydro-2H-chromen-6-yl)-2-methyl-1-oxo-1,2-dihydro-3-isoquinolinyl][(1,1-dimethylethyl)oxy]ethanoic acid], the IC50 stood at 100 nM.

On to `Cn1c(C(OC(C)(C)C)C(=O)O)c(-c2cc(Cl)ccc2Cl)c2ccccc2c1=O` (stereo not shown) [Example 14, 2-(tert-butoxy)-2-[4-(2,5-dichlorophenyl)-2-methyl-1-oxo-1,2-dihydroisoquinolin-3-yl]acetic acid], for which the IC50 worked out at 2570 nM.

`COc1ccc2c(-c3ccc4c(c3C)CCCO4)c(C(OC(C)(C)C)C(=O)O)n(C)c(=O)c2c1` (stereo not shown) [Example 76, 2-(tert-butoxy)-2-[7-methoxy-2-methyl-4-(5-methyl-3,4-dihydro-2H-1-benzopyran-6-yl)-1-oxo-1,2-dihydroisoquinolin-3-yl]acetic acid]: the IC50 was 120 nM.

`Cc1c(-c2c(C(OC(C)(C)C)C(=O)O)n(C)c(=O)c3cc(OCc4c(F)cc(F)cc4F)ccc23)ccc2c1CCCO2` (stereo not shown) [Example 99, 2-(tert-butoxy)-2-[2-methyl-4-(5-methyl-3,4-dihydro-2H-1-benzopyran-6-yl)-1-oxo-7-[(2,4,6-trifluorophenyl)methoxy]-1,2-dihydroisoquinolin-3-yl]acetic acid]: the IC50 came to 130 nM.

For `Cc1c(-c2c(C(OC(C)(C)C)C(=O)O)n(C)c(=O)c3cc(OC(C)C)ccc23)ccc2c1CCCO2` (stereo not shown) [Example 135, 2-(tert-butoxy)-2-[2-methyl-4-(5-methyl-3,4-dihydro-2H-1-benzopyran-6-yl)-1-oxo-7-(propan-2-yloxy)-1,2-dihydroisoquinolin-3-yl]acetic acid], the IC50 was 140 nM.

Take `Cc1c(-c2c(C(OC(C)(C)C)C(=O)O)n(C)c(=O)c3ccc(F)cc23)ccc2c1CCCO2` (stereo not shown) [Example 69, 2-(tert-butoxy)-2-[6-fluoro-2-methyl-4-(5-methyl-3,4-dihydro-2H-1-benzopyran-6-yl)-1-oxo-1,2-dihydroisoquinolin-3-yl]acetic acid]: the IC50 is 570 nM.

Consider `Cn1c(C(OC(C)(C)C)C(=O)O)c(-c2ccc3c(c2Cl)OCCC3)c2ccccc2c1=O` (stereo not shown) [Example 37, 2-(tert-butoxy)-2-[4-(8-chloro-3,4-dihydro-2H-1-benzopyran-7-yl)-2-methyl-1-oxo-1,2-dihydroisoquinolin-3-yl]acetic acid], for which the IC50 was determined as 33200 nM.
